The text below walks through data of paper PMC4830886, “Extended evaluation on the ES-D3 cell differentiation assay combined with the BeWo transport model, to predict relative developmental toxicity of triazole compounds” (Archives of Toxicology, 2015).

Molecules are shown by their SMILES.

One series relates to BeWo b30 cell layers. Kind of series: in vitro BeWo transport model (placental transfer). As for the experimental part: (§1) To study placental transfer of test compounds, BeWo transport experiments were performed as described previously (Li et al. [2013]). Briefly, BeWo b30 cells (passages 27–45) were cultured in DMEM (Zwijndrecht, The Netherlands), supplemented with 10 % (v/v) heat-inactivated FCS (HyClone-Perbio, Etten-Leur, The Netherlands), 10,000 U/ml penicillin, 10 mg/ml streptomycin and 2 mM L-glutamine. The cells were seeded at a density of 1 × 10^5 cells/cm^2 on transwell® polycarbonate membranes (12 mm diameter, 0.4 μm pore size) (VWR International BV, Amsterdam, The Netherlands) coated with human placental collagen. The medium (0.5-ml apical compartment, 1.5-ml basolateral compartment) was replaced daily. At day 6 postseeding, the BeWo b30 cell layers were used for transport experiments. The barrier-forming capacity of the BeWo cell layers was evaluated by measuring the transepithelial electrical resistance (TEER) of the cell monolayer using a Millicell ERS-2 Volt-Ohm Meter (Millipore, USA) at day 6 postseeding as described previously (Li et al. [2013]). Only the cell layers showing TEER values between 80 and 100 Ω cm^2 were used for transport experiments.
(§2) Transport experiments were initiated by adding 0.5 ml of transport buffer Hank’s balanced salt solution (HBSS, Invitrogen, Breda, The Netherlands) containing the test compound, being 0594, 0595, 0596, 0599, 0600 and 0618, dissolved in DMSO (final solvent concentration 0.5 % DMSO), at concentration of 50 μM, to the apical compartment and 1.5 ml transport buffer to the basolateral compartment. Subsequently, the plate was incubated in a humidified atmosphere with 5 % CO2 at 37 °C. After 15, 30, 60 and 90 min, a sample of 0.2 ml was taken from the basolateral compartment and replaced by an equal volume of transport buffer. At the end of each experiment, a 0.2-ml sample was also taken from the apical compartment. Subsequently, the filters with the BeWo b30 cell layers were washed three times with PBS, cut out of the insert, dissolved in 0.25 ml 65 % (v/v) methanol and sonificated for 15 min in a Bandelin Sonorex RK100 (Berlin, Germany) in order to determine the amount of compound accumulated in the cells. After each experiment, mass balance calculations were performed. In each transport study, amoxicillin and antipyrine were included as control and reference compounds. Amoxicillin transport was included to assess for monolayer integrity since it is a compound known to be transported only to a limited extent across the placenta, whereas antipyrine was included as a control for optimal transport and a reference compound to enable calculation of relative transport rates (Li et al. [2013]). The transport of the six test compounds, as well as the reference compounds amoxicillin and antipyrine, through the permeable membrane of the transwell filter in the absence of BeWo cells was determined as well. […] For each test compound, three independent experiments were performed, with three technical replicates per experiment.
(§3) Samples were analyzed using high-performance liquid chromatography (HPLC) to quantify the amount of test compound in order to determine the transport rate and to perform mass balance calculations. The HPLC system used consisted of a Waters (Milford, MA) 600 controller and a 600 pump, equipped with a photodiode array detector set to record absorption of wavelengths between 200 and 400 nm. A Waters 717 plus autosampler was used for sample injection. The temperature of the autosampler was kept at 7 °C.
(§4) For analysis of all compounds, 50 μl sample was injected to a C18 5 μm reverse-phase column (150 mm × 4.6 mm I.D.) with a guard column (7.5 mm × 4.6 mm I.D.) (Alltech, Bergen op Zoom, The Netherlands). The mobile phase used for analysis of all the test compounds consisted of (A) 0.1 % trifluoroacetic acid in nanopure water and (B) HPLC-grade acetonitrile. Elution was at a flow rate of 0.8 ml/min, starting at 22 % B with a linear increase to 100 % B in 8 min.

Series [1] can be described thus: in vitro BeWo transport model (placental transfer). The settings on record: human. As for the experimental part: as §1, §2, §3, §4

In the case of `CC1(C)S[C@@H]2[C@H](NC(=O)[C@H](N)c3ccc(O)cc3)C(=O)N2[C@H]1C(=O)O` [Amoxicillin, amoxicillin, reference compound], the “Intracellular accumulation (% of added amount)” value in the series on BeWo b30 cell layers (BeWo cells, 50 μM (25 nmol) apical, at 90 min) was 0 % of added amount. For the same molecule, the Papp (in general, a coefficient for how fast a substance crosses the barrier) at 30 min, 50 μM in series [1] was found to be 6.5 ± 0.2 ×10⁻⁶ cm/s.
With `Cc1cc(=O)n(-c2ccccc2)n1C` [Antipyrine, antipyrine, reference compound], the “Intracellular accumulation (% of added amount)” value in the series on BeWo b30 cell layers (human, 90 min, 50 μM) is 0 % of added amount. The “Relative Papp value” with BeWo b30 cell layers (human, not told, 50 μM) came out at 1.00. In series [1], this molecule came in with a Papp at 30 min, 50 μM of 38.9 ± 3 ×10⁻⁶ cm/s.
